Source: patent US6737383B1, “Herbicidal oxadiazolidines” (priority 1999, dated 2004)

Columns and labels:
giant foxtail = assay: Test B pre/postemergence giant foxtail; type: in vivo, Setaria faberii
Procedure, shortened: (§1)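 Response is a visual 0-to-10 score relative to untreated plants, where 0 means no effect and 10 means complete control, taken twelve to sixteen days after application. Treatments went onto soil at planting and onto foliage of 1- to 4-leaf plants, using a surfactant-containing non-phytotoxic solvent.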

crabgrass = assay: Test B pre/postemergence crabgrass; type: in vivo, Digitaria sanguinalis
Procedure, shortened: as §1

duck salad = assay: Test B flood test duck salad; type: in vivo, Heteranthera limosa
Procedure, shortened: (§2)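 Flood test on plants grown to the 2-leaf stage; treated plants kept in greenhouse twelve to sixteen days, then visually rated against controls on a 0 (no effect) to 10 (complete control) scale.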

bamyardgrass = assay: Test B flood test barnyardgrass; type: in vivo, Echinochloa crus-galli
Procedure, shortened: as §2

wheat = assay: Test B pre/postemergence wheat; type: in vivo, Triticum aestivum
Procedure, shortened: as §1

corn = assay: Test B pre/postemergence corn; type: in vivo, Zea mays
Procedure, shortened: as §1

soybean = assay: Test B pre/postemergence soybean; type: in vivo, Glycine max
Procedure, shortened: as §1

sugar beet = assay: Test B pre/postemergence sugar beet; type: in vivo, Beta vulgaris
Procedure, shortened: as §1

rape = assay: Test B pre/postemergence rape; type: in vivo, Brassica napus
Procedure, shortened: as §1

pigweed = assay: Test B pre/postemergence pigweed; type: in vivo, Amaranthus retroflexus
Procedure, shortened: as §1

purple nutsedge = assay: Test B pre/postemergence purple nutsedge; type: in vivo, Cyperus rotundus
Procedure, shortened: as §1

cocklebur = assay: Test B pre/postemergence cocklebur; type: in vivo, Xanthium strumarium
Procedure, shortened: as §1

wild oat = assay: Test B pre/postemergence wild oat; type: in vivo, Avena fatua
Procedure, shortened: as §1

velvetleaf = assay: Test B pre/postemergence velvetleaf; type: in vivo, Abutilon theophrasti
Procedure, shortened: as §1

morningglory = assay: Test B pre/postemergence morningglory; type: in vivo, Ipomoea hederacea
Procedure, shortened: as §1

rice = assay: Test B flood test rice; type: in vivo, Oryza sativa
Procedure, shortened: as §2

[1] = Preemergence, Rate 62 g/ha, scale of 0 to 10 where 0 is no effect and 10 is complete control
[2] = Preemergence, Rate 250 g/ha, scale of 0 to 10 where 0 is no effect and 10 is complete control
[3] = Preemergence, Rate 500 g/ha, scale of 0 to 10 where 0 is no effect and 10 is complete control
[4] = Rate 62 g/ha, Postemergence, scale 0 to 10, 0 no effect, 10 complete control
[5] = Rate 125 g/ha, Postemergence, scale of 0 to 10 where 0 is no effect and 10 is complete control
[6] = Rate 125 g/ha, Preemergence, scale of 0 to 10 where 0 is no effect and 10 is complete control
[7] = Rate 250 g/ha, Postemergence, scale of 0 to 10 where 0 is no effect and 10 is complete control
[8] = Rate 500 g/ha, Postemergence, scale 0 to 10, 0 no effect, 10 complete control
[9] = Rate 62 g/ha, headed Pre-emergence (flood test species), scale 0 to 10 (0 no effect, 10 complete control)
[10] = Rate 125 g/ha, Pre-emergence, flood test species, scale 0 to 10 where 0 is no effect and 10 is complete control
[11] = Rate 250 g/ha, Pre-emergence, flood-test species, scale 0 to 10, 0 is no effect, 10 is complete control
[12] = Rate 500 g/ha, Pre-emergence, flood test species, scale 0 to 10 (0 no effect, 10 complete control)

CC(C)N(C(=O)n1oc(=O)n(C2CCCC2)c1=O)c1ccc(Cl)cc1 [Compound 282]
Giant foxtail plant response rating (giant foxtail; [1]): 8
Giant foxtail plant response rating (giant foxtail; [2]): 10
Plant response rating, Giant foxtail (giant foxtail; [3]): 10
Giant foxtail plant response rating (giant foxtail; [4]): 0
Giant foxtail plant response rating (giant foxtail; [5]): 0
Giant foxtail plant response rating (giant foxtail; [6]): 8
Plant response rating, Giant foxtail (giant foxtail; [7]): 0
Giant foxtail plant response rating (giant foxtail; [8]): 2
Crabgrass plant response rating (crabgrass; [1]): 1
Crabgrass plant response rating (crabgrass; [2]): 6
Plant response rating, Crabgrass (crabgrass; [3]): 8
Crabgrass plant response rating (crabgrass; [4]): 0
Crabgrass plant response rating (crabgrass; [5]): 0
Crabgrass plant response rating (crabgrass; [6]): 1
Plant response rating, Crabgrass (crabgrass; [7]): 0
Crabgrass plant response rating (crabgrass; [8]): 0
Ducksalad plant response rating (duck salad; [9]): 0
Ducksalad plant response rating (duck salad; [10]): 0
Ducksalad plant response rating (duck salad; [11]): 0
Ducksalad plant response rating (duck salad; [12]): 0
Barnyardgrass plant response rating (bamyardgrass; [9]): 7
Barnyardgrass plant response rating (bamyardgrass; [10]): 7
Barnyardgrass plant response rating (bamyardgrass; [11]): 9
Barnyardgrass plant response rating (bamyardgrass; [12]): 9
Wheat plant response rating (wheat; [1]): 0
Wheat plant response rating (wheat; [2]): 0
Plant response rating, Wheat (wheat; [3]): 0
Wheat plant response rating (wheat; [4]): 0
Wheat plant response rating (wheat; [5]): 0
Wheat plant response rating (wheat; [6]): 0
Plant response rating, Wheat (wheat; [7]): 0
Wheat plant response rating (wheat; [8]): 0
Corn plant response rating (corn; [1]): 0
Corn plant response rating (corn; [2]): 0
Plant response rating, Corn (corn; [3]): 0
Corn plant response rating (corn; [4]): 0
Corn plant response rating (corn; [5]): 0
Corn plant response rating (corn; [6]): 0
Plant response rating, Corn (corn; [7]): 0
Corn plant response rating (corn; [8]): 0
Soybean plant response rating (soybean; [1]): 0
Soybean plant response rating (soybean; [2]): 0
Plant response rating, Soybean (soybean; [3]): 0
Soybean plant response rating (soybean; [4]): 3
Soybean plant response rating (soybean; [5]): 3
Soybean plant response rating (soybean; [6]): 0
Plant response rating, Soybean (soybean; [7]): 4
Soybean plant response rating (soybean; [8]): 4
Sugarbeets plant response rating (sugar beet; [1]): 0
Sugarbeets plant response rating (sugar beet; [2]): 0
Plant response rating, Sugarbeets (sugar beet; [3]): 3
Sugarbeets plant response rating (sugar beet; [4]): 2
Sugarbeets plant response rating (sugar beet; [5]): 6
Sugarbeets plant response rating (sugar beet; [6]): 0
Plant response rating, Sugarbeets (sugar beet; [7]): 7
Sugarbeets plant response rating (sugar beet; [8]): 7
Rape plant response rating (rape; [1]): 0
Rape plant response rating (rape; [2]): 7
Plant response rating, Rape (rape; [3]): 2
Rape plant response rating (rape; [4]): 2
Rape plant response rating (rape; [5]): 3
Rape plant response rating (rape; [6]): 0
Plant response rating, Rape (rape; [7]): 6
Rape plant response rating (rape; [8]): 8
Redroot pigweed plant response rating (pigweed; [1]): 1
Redroot pigweed plant response rating (pigweed; [2]): 7
Plant response rating, Redroot pigweed (pigweed; [3]): 9
Redroot pigweed plant response rating (pigweed; [4]): 4
Redroot pigweed plant response rating (pigweed; [5]): 6
Redroot pigweed plant response rating (pigweed; [6]): 6
Plant response rating, Redroot pigweed (pigweed; [7]): 7
Redroot pigweed plant response rating (pigweed; [8]): 8
Nutsedge plant response rating (purple nutsedge; [1]): 0
Nutsedge plant response rating (purple nutsedge; [2]): 0
Nutsedge plant response rating (purple nutsedge; [4]): 0
Nutsedge plant response rating (purple nutsedge; [5]): 0
Nutsedge plant response rating (purple nutsedge; [6]): 0
Plant response rating, Nutsedge (purple nutsedge; [7]): 0
Nutsedge plant response rating (purple nutsedge; [8]): 0
Plant response rating, Cocklebur (cocklebur; [3]): 0
Cocklebur plant response rating (cocklebur; [4]): 0
Cocklebur plant response rating (cocklebur; [5]): 0
Cocklebur plant response rating (cocklebur; [6]): 0
Plant response rating, Cocklebur (cocklebur; [7]): 2
Cocklebur plant response rating (cocklebur; [8]): 2
Wild oats plant response rating (wild oat; [1]): 0
Wild oats plant response rating (wild oat; [2]): 5
Plant response rating, Wild oats (wild oat; [3]): 7
Wild oats plant response rating (wild oat; [4]): 0
Wild oats plant response rating (wild oat; [5]): 0
Plant response rating, Wild oats (wild oat; [7]): 0
Wild oats plant response rating (wild oat; [8]): 0
Velvetleaf plant response rating (velvetleaf; [1]): 0
Velvetleaf plant response rating (velvetleaf; [2]): 0
Plant response rating, Velvetleaf (velvetleaf; [3]): 0
Velvetleaf plant response rating (velvetleaf; [4]): 0
Velvetleaf plant response rating (velvetleaf; [5]): 0
Velvetleaf plant response rating (velvetleaf; [6]): 0
Plant response rating, Velvetleaf (velvetleaf; [7]): 3
Velvetleaf plant response rating (velvetleaf; [8]): 3
Morningglory plant response rating (morningglory; [1]): 0
Morningglory plant response rating (morningglory; [2]): 0
Plant response rating, Morningglory (morningglory; [3]): 0
Morningglory plant response rating (morningglory; [4]): 6
Morningglory plant response rating (morningglory; [5]): 6
Morningglory plant response rating (morningglory; [6]): 0
Plant response rating, Morningglory (morningglory; [7]): 7
Morningglory plant response rating (morningglory; [8]): 9
Rice plant response rating (rice; [9]): 0
Rice plant response rating (rice; [10]): 0
Rice plant response rating (rice; [11]): 0
Rice plant response rating (rice; [12]): 0
